The source of these data is patent US10239875B2, “Naphthyridinyl hydrazine derivatives as potent peripheral analgesic agents” (KING SAUD UNIVERSITY, priority 2017, dated 2019).

In this experiment the test system is Albino mice. Nature of the experiment: mouse writhing test (acetic acid-induced), peripheral analgesic activity. The format is in vivo. As to conditions: for No. of writhes/20 min: 30 min before i.p. acetic acid 0.7% 10 mL/kg, mean ± S.E.; for Protection (%) / analgesic activity compared with acetylsalicylic acid / placebo control (in words): writhing test; for Protection (%): versus placebo control mean; for analgesic activity compared with acetylsalicylic acid / placebo control (in words): 20 mg/kg orally vs acetylsalicylic acid 150 mg/kg, Dunnett's test P < 0.05. The procedure:
The test compounds synthesized in Examples 2-11 were tested for analgesic activity as follows. Albino mice of both sexes (27-30 g body weight each) were used in the experiments. Mice used in this experiment were obtained from the Animal House Colony at the National Research Centre (NRC), Egypt. All animals were housed under standard conditions of natural 12-hour light and dark cycles with free access to food and water. Animals were allowed to adapt to the laboratory environment for one week before use in experimentation. All animal procedures were first approved by the Ethics Committee of the NRC, Egypt, and were performed in accordance with standard recommendations and guidelines for proper care and use of laboratory animals.
The peripheral analgesic activities of compounds 1 to 10 were determined in mice using the standard writhing test. Seventy-two mice were divided into 12 groups of 6 mice. Mice of the first (placebo control) and last (active control) groups were treated orally (p.o.) with the vehicle (5 mL/kg) or acetyl salicylic acid (150 mg/kg), respectively. Animals of the second to eleventh groups were orally given one of the selected compounds at doses of 20 mg/kg. Once 30 minutes passed after administration of medication, each mouse received an intraperitoneal injection of acetic acid (0.7% aqueous solution) in a dose of 10 mL/kg to induce writhing. The mice were then placed in transparent boxes, and the number of writhes per animal was counted for 20 minutes after acetic acid injection. The “protection %” was calculated using the following equation: Protection (%)=[Control mean−Treated mean/Control mean]×100.
On the technique in general: Writhing tests count abdominal constrictions after an irritant is injected.

[1] abbreviates: acetylsalicylic acid 150 mg/kg orally in DW.
The mark [2] stands for this setting: test compound 20 mg/kg orally in DMSO.

With `CC(=O)Oc1ccccc1C(=O)O` [Acetylsalicylic acid, acetylsalicylic acid, reference compound], under setting [1], the “No. of writhes/20 min” value is given as 17.4 ± 1.57 writhes/20 min and the “Protection (%)” value was determined as 78.47%.
As to `Cc1ccc2c(NN=Cc3ccc(N4CCNCC4)cc3)cc(C)nc2n1` [Compound 2], under setting [2], the “No. of writhes/20 min” value is recorded as 39.6 ± 3.14 writhes/20 min and the “Protection (%)” value worked out at 50.99%.
On the same counts, the results for `Cc1ccc2c(NN=Cc3ccc(N4CCN(C)CC4)cc3)cc(C)nc2n1` [Compound 4] are 44.8 ± 2.85 writhes/20 min and 44.55%.
Regarding `CC(=NNc1cc(C)nc2nc(C)ccc12)c1ccc(N2CCCCC2)cc1` [Compound 7], the “analgesic activity compared with acetylsalicylic acid / placebo control (in words)” value is “analgesic activity close to that of acetylsalicylic acid”. Under setting [2], the “No. of writhes/20 min” value is 23.6 ± 2.16 writhes/20 min and the “Protection (%)” value was 70.79%.
`Cc1ccc2c(NN=Cc3ccc(N4CCOCC4)cc3)cc(C)nc2n1` [Compound 1]: the “analgesic activity compared with acetylsalicylic acid / placebo control (in words)” value was “analgesic activity close to that of acetylsalicylic acid”. For the same molecule, under setting [2], the “No. of writhes/20 min” value worked out at 24.8 ± 1.02 writhes/20 min and the “Protection (%)” value was found to be 69.31%.
As for `CC(=NNc1cc(C)nc2nc(C)ccc12)c1ccc(N2CCNCC2)cc1` [Compound 6], the “analgesic activity compared with acetylsalicylic acid / placebo control (in words)” value is on record as “analgesic activity close to that of acetylsalicylic acid”. For the same molecule, under setting [2], the “No. of writhes/20 min” value is 26.2 ± 1.32 writhes/20 min and the “Protection (%)” value was 67.57%.
Regarding `CC(=NNc1cc(C)nc2nc(C)ccc12)c1ccc(N2CCOCC2)cc1` [Compound 5], under setting [2], the “No. of writhes/20 min” value was found to be 29.2 ± 2.50 writhes/20 min and the “Protection (%)” value is 63.86%.
For the molecule `Cc1ccc2c(NN=Cc3ccc(N4CCCCC4)cc3)cc(C)nc2n1` [Compound 3], under setting [2], the “No. of writhes/20 min” value is listed as 36.2 ± 2.58 writhes/20 min and the “Protection (%)” value is 55.20%.
